Literature values as cited in patent publication US20250188545A1, “METHODS FOR PREDICTING RESPONSIVENESS OF LYMPHOMA TO DRUG AND METHODS FOR TREATING LYMPHOMA” (Celgene Corporation, priority 2022, published 2025).

Test system: high-risk ABC DLBCL population
Conditions: PHOENIX (ibrutinib), ROBUST (lenalidomide)

## Nc1cccc2c1CN(C1CCC(=O)NC1=O)C2=O (stereo not shown) [lenalidomide]
  activity combined with R-CHOP compared to R-CHOP alone: did not demonstrate greater activities
